# Earlier results as cited in publication PMC3229099 (Acta biochimica Polonica, 2011).
# How the values were obtained:
# opioid δ receptors = conditions: in vivo studies with the use of selective opioid receptor antagonists; ref Kotlińska et al, 2009
# [1] = test system: δ receptor versus μ receptor; conditions: ref Pawlak et al, 1997
substance,measurement,setting,value
"amide of cyclo[N^ε, N^δ -carbonyl-D-Lys^2, Dap^5 ]enkephalin",receptor type mediating antinociception in vivo,opioid δ receptors,induced antinociception predominantly through opioid δ receptors
same,GPI/MVD ratio,[1],0.33
